In one assay the target is CDK6/cyclin D3 (Homo sapiens, UniProt Q00534). Kind of assay: Inhibition of human CDK6/cyclin-D3 using RB protein as substrate by [gamma-33P]-ATP assay. The assay is classed as protein-complex assay.
Assay [1] concerns the target Cyclin-dependent kinase 4/cyclin D1 (Homo sapiens, UniProt P11802). Nature of the assay: Inhibition of human CDK4/cyclin-D1 using RB protein as substrate by [gamma-33P]-ATP assay. The class given is protein-complex assay.
Assay [2] has as its target T1, Baculoviral IAP repeat-containing protein 2/Cyclin-dependent kinase 4 (Homo sapiens, UniProt P11802+Q13490). Kind of assay: Protac activity at CDK4/BIRC2 in human Jurkat cells assessed as induction of CDK4 degradation measured after 24 hrs by capillary electrophoresis. The assay is classed as cell-based.
Target sequence in this assay (P11802 whole entry): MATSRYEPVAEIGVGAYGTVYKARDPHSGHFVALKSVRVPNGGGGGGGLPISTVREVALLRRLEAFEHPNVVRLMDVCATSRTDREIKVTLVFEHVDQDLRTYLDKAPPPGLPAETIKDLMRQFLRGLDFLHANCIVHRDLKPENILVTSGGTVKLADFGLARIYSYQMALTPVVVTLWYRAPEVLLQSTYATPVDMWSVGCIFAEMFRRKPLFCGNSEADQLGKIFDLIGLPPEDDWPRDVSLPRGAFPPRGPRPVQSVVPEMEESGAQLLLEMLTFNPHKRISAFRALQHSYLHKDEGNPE
Target sequence in this assay (Q13490 whole entry): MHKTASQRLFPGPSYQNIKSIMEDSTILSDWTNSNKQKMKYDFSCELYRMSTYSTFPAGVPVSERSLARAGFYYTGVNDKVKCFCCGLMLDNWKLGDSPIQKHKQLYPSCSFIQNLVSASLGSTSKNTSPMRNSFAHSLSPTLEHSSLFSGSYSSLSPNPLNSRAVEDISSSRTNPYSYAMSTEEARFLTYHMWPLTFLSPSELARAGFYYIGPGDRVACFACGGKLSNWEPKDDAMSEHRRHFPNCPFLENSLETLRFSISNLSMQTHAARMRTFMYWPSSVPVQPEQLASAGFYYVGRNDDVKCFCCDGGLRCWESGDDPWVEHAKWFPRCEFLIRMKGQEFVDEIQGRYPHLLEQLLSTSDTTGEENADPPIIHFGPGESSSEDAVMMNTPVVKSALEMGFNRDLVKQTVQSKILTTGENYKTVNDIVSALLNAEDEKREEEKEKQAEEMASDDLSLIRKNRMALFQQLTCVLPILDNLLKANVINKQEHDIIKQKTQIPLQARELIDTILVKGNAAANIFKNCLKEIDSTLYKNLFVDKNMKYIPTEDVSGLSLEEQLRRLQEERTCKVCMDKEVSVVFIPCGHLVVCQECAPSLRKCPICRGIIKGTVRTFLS
Assay [3] concerns the target Baculoviral IAP repeat-containing protein 2/Cyclin-dependent kinase 6 (Homo sapiens, UniProt Q00534+Q13490). Nature of the assay: Protac activity at CDK6/BIRC2 in human Jurkat cells assessed as induction of CDK6 degradation measured after 24 hrs by capillary electrophoresis. The assay is classed as cell-based.
Assay [4] relates to Baculoviral IAP repeat-containing protein 2/Cyclin-dependent kinase 6 (Homo sapiens). Kind of assay: Protac activity at CDK6/BIRC2 in human epoxomicin pretreated Jurkat cells assessed as decrease in CDK6 protein level measured after 5 hrs.
Assay [5] has as its target T1, Baculoviral IAP repeat-containing protein 2/Cyclin-dependent kinase 4. Kind of assay: Protac activity at CDK4/BIRC2 in human epoxomicin pretreated Jurkat cells assessed as decrease in CDK4 protein level measured after 5 hrs. The class given is cell-based.
Target sequence in this assay (P11802 2-303 limits assumed): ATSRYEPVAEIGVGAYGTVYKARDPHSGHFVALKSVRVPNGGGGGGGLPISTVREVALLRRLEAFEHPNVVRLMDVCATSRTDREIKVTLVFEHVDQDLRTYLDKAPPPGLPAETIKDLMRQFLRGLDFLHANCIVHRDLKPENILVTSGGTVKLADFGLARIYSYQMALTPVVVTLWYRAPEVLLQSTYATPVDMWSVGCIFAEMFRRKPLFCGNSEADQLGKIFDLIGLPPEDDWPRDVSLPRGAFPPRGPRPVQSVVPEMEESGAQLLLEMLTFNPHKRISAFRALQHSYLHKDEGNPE
Target sequence in this assay (Q13490 whole entry partner): as the sequence (Q13490 whole entry) above
The target of assay [6] is Protein cereblon/Cyclin-dependent kinase 4 (Homo sapiens, UniProt P11802+Q96SW2). Kind of assay: Protac activity at CRBN/CDK4 in human Jurkat cells assessed as induction of CDK4 degradation measured after 24 hrs by capillary electrophoresis. The assay is classed as cell-based.
Protein cereblon/Cyclin-dependent kinase 4, sequence (P11802 whole entry): as the sequence (P11802 whole entry) above
Protein cereblon/Cyclin-dependent kinase 4, sequence (Q96SW2 whole entry): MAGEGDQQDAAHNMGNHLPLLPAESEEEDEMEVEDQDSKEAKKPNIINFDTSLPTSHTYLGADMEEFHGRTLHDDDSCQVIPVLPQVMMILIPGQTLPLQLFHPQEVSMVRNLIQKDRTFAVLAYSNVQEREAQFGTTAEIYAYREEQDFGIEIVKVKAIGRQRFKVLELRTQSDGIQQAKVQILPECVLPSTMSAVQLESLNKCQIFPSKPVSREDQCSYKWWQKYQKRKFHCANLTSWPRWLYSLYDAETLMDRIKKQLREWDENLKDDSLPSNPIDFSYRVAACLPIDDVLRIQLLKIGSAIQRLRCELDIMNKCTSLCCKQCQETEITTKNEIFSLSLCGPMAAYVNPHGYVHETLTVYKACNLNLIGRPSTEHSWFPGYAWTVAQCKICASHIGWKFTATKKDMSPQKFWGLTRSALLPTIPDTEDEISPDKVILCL
For assay [7], the target named is Protein cereblon/Cyclin-dependent kinase 6 (Homo sapiens, UniProt Q00534+Q96SW2). Kind of assay: Protac activity at CRBN/CDK6 in human Jurkat cells assessed as induction of CDK6 degradation measured after 24 hrs by capillary electrophoresis. The assay is classed as cell-based.
Protein cereblon/Cyclin-dependent kinase 6, sequence (Q00534 whole entry): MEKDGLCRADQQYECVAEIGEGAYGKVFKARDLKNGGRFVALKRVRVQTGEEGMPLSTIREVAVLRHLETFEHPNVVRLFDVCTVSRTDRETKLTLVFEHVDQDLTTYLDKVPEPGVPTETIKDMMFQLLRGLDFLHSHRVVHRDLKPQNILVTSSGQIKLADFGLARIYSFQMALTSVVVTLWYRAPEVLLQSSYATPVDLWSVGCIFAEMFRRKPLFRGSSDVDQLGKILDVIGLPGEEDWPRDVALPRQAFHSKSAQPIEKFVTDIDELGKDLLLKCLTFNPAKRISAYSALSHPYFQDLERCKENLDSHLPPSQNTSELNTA
Protein cereblon/Cyclin-dependent kinase 6, sequence (Q96SW2 whole entry): as the sequence (Q96SW2 whole entry) above
Assay [8] deals with von Hippel-Lindau disease tumor suppressor/Cyclin-dependent kinase 4 (Homo sapiens). Kind of assay: Protac activity at CDK4/VHL in human epoxomicin pretreated Jurkat cells assessed as decrease in CDK4 protein level measured after 5 hrs.
Assay [9] deals with T2, von Hippel-Lindau disease tumor suppressor/Cyclin-dependent kinase 4 (Homo sapiens, UniProt P11802+P40337). Nature of the assay: Protac activity at CDK4/VHL in human Jurkat cells assessed as induction of CDK4 degradation measured after 24 hrs by capillary electrophoresis. The class given is cell-based.
Target sequence in this assay (P11802 whole entry): as the sequence (P11802 whole entry) above
Target sequence in this assay (P40337 whole entry): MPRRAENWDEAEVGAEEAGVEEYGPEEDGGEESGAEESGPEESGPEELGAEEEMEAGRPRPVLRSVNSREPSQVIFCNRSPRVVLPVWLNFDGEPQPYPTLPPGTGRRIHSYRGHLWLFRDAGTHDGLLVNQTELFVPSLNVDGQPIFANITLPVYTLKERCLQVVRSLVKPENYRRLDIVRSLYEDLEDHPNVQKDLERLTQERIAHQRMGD
For assay [10], the target named is von Hippel-Lindau disease tumor suppressor/Cyclin-dependent kinase 6 (Homo sapiens, UniProt Q00534+P40337). Nature of the assay: Protac activity at CDK6/VHL in human Jurkat cells assessed as induction of CDK6 degradation measured after 24 hrs by capillary electrophoresis. The class given is cell-based.
von Hippel-Lindau disease tumor suppressor/Cyclin-dependent kinase 6, sequence (Q00534 whole entry): as the sequence (Q00534 whole entry) above
von Hippel-Lindau disease tumor suppressor/Cyclin-dependent kinase 6, sequence (P40337 whole entry): as the sequence (P40337 whole entry) above
Assay [11] addresses T2, von Hippel-Lindau disease tumor suppressor/Cyclin-dependent kinase 4. Nature of the assay: Protac activity at CDK4/VHL in human epoxomicin pretreated Jurkat cells assessed as decrease in CDK4 protein level measured after 5 hrs. The assay is classed as cell-based.
Target sequence in this assay (P11802 2-303 limits assumed): as the sequence (P11802 2-303 limits assumed) above
Target sequence in this assay (P40337 whole entry partner): as the sequence (P40337 whole entry) above

Active and inactive are the calls of the source. The rule behind the calls is not given here.

Cyclin-dependent kinase 4/cyclin D1, sequence (P11802 whole entry): as the sequence (P11802 whole entry) above
Cyclin-dependent kinase 4/cyclin D1, sequence (P24385 whole entry, further chain): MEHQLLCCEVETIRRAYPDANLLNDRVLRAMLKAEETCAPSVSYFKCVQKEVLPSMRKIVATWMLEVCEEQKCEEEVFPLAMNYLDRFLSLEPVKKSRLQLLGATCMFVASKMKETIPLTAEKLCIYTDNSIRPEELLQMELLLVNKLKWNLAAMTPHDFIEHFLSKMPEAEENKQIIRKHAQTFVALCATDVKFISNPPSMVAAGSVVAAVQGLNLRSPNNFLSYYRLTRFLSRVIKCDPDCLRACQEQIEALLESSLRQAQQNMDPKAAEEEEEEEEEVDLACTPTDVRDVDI
CDK6/cyclin D3, sequence (P30281 whole entry): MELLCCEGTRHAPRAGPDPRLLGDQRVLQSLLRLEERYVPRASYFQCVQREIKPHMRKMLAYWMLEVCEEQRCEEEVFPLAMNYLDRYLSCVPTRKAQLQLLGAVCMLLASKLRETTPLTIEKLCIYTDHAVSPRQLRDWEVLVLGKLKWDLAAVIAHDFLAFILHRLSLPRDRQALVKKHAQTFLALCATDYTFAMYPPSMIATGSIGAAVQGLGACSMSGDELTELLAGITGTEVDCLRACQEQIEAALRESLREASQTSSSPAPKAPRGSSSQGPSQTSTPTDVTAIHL
CDK6/cyclin D3, sequence (Q00534 whole entry): as the sequence (Q00534 whole entry) above
Baculoviral IAP repeat-containing protein 2/Cyclin-dependent kinase 6, sequence (Q00534 whole entry): as above
Baculoviral IAP repeat-containing protein 2/Cyclin-dependent kinase 6, sequence (Q13490 whole entry): as the sequence (Q13490 whole entry) above

On to `CN[C@@H](C)C(=O)N[C@H](C(=O)N1C[C@@H](NC(=O)CCCCCCCN2CCN(c3ccc(Nc4ncc5c(C)c(C(C)=O)c(=O)n(C6CCCC6)c5n4)nc3)CC2)C[C@H]1C(=O)Nc1c(F)cccc1F)C(C)(C)C`, for which the IC50 on CDK6/cyclin D3 (read-out: pIC50 (converted)) is 12.6 nM; in assay [1], 5.01 nM. Besides, the results for the pDC50 in assay [2] and in assay [3] were 7.7 and 8.3, respectively. Further, the result in [4] and in [5] was inactive.

Consider `CC(=O)c1c(C)c2cnc(Nc3ccc(N4CCN(CCOCCOCCNC(=O)CNc5cccc6c5C(=O)N(C5CCC(=O)NC5=O)C6=O)CC4)cn3)nc2n(C2CCCC2)c1=O` (stereo unspecified), for which the values for the IC50 (on CDK6/cyclin D3 (read-out: pIC50 (converted)); in [1]) were 15.8 nM and 6.31 nM, respectively. Besides, the pDC50 was found to be 7.3 in assay [6] and 8.3 in [7].

On to `CC(=O)c1c(C)c2cnc(Nc3ccc(N4CCN(CCCCCCCC(=O)N[C@H](C(=O)N5C[C@H](O)C[C@H]5C(=O)N[C@@H](C)c5ccc(-c6scnc6C)cc5)C(C)(C)C)CC4)cn3)nc2n(C2CCCC2)c1=O`, for which the IC50 is 200 nM at CDK6/cyclin D3 (read-out: IC50) and 31.6 nM in assay [1]. Also, the outcome in [8] and in [11] was inactive. Further, the pDC50 in [9] worked out at 7.6; in assay [10], 8.4. The DC50 in assay [10] came out at 4 nM.

`CN[C@@H](C)C(=O)N[C@H](C(=O)N1C[C@@H](NC(=O)COCCOCCOCCN2CCN(c3ccc(Nc4ncc5c(C)c(C(C)=O)c(=O)n(C6CCCC6)c5n4)nc3)CC2)C[C@H]1C(=O)Nc1c(F)cccc1F)C(C)(C)C`: the IC50 at CDK6/cyclin D3 (read-out: pIC50 (converted)) is 15.8 nM; in assay [1], 6.31 nM. Also, the pDC50 in assay [2] is listed as 7.1; in [3], 7.8.

Regarding `CC(=O)c1c(C)c2cnc(Nc3ccc(N4CCN(CCCCNC(=O)CNc5cccc6c5C(=O)N(C5CCC(=O)NC5=O)C6=O)CC4)cn3)nc2n(C2CCCC2)c1=O` (stereo unspecified), in assay [1], the IC50 is 3.16 nM.

Take `CN[C@@H](C)C(=O)N[C@H](C(=O)N1C[C@@H](NC(=O)CCOCCOCCOCCNC(=O)CN2CCN(c3ccc(Nc4ncc5c(C)c(C(C)=O)c(=O)n(C6CCCC6)c5n4)nc3)CC2)C[C@H]1C(=O)Nc1c(F)cccc1F)C(C)(C)C`: the IC50 is 39.8 nM on CDK6/cyclin D3 (read-out: pIC50 (converted)) and 15.8 nM in [1]. For the same compound, the pDC50 in [2] was determined as 5.3; in assay [3], 5.8.

As usually defined, the DC50 is the concentration giving 50% degradation.

For the origin of these results see ChEMBL document CHEMBL4627338, “Selective CDK6 degradation mediated by cereblon, VHL, and novel IAP-recruiting PROTACs” (Bioorg Med Chem Lett, 2020).
